One test deals with PC-9/GR cells. The test is described as follows: Cell apoptosis assay (Annexin V-FITC/PI flow cytometry), PC-9/GR. It counts as cell-based, human. To be noted: gefitinib 2 μM and/or W2014-S 1 μM, 72 h. The method, then: Briefly, aliquots of 2 × 10^5 cells were seeded into 6-well plates and incubated for 24 h at 37 °C. […] After trypsinization and gently washing cells once with medium, the cells were washed twice with cold PBS. The precipitation was resuspended by 400 μL of 1 × binding buffer, and then resuspended cells were transferred into new 1.5 mL EP tubes. Then 3 μL of Annexin V-FITC and 5 μL of propidium iodide were added to the resuspended cells with further incubation at room temperature for 15 min in the dark. The analysis was done on Guava easyCyte (USA) and FlowJo 7.6 software.
In general terms: In flow cytometry, cells or beads pass a laser one at a time.

For the next test, the system named is PC-9/GR xenografts. To be noted: gefitinib intragastric 20 mg/kg per day, W2014-S 10 mg/kg/day, 21 d.
The target of test [1] is full-length wild-type STAT3 (Homo sapiens, UniProt P40763). The test is described as follows: Surface plasmon resonance analysis of binding to STAT3. Conditions: SPR. As for the experimental part:
Biacore 8K and Biacore Insight Evaluation software were used to analyze the interaction between the agents and the protein full-length wild-type STAT3 to detect the binding affinity. Purified STAT3 (100 μg/mL) without Tris and glycerin was injected onto the CM5 Chip (GE, USA) for immobilization. Several concentrations of W2014-S or W2014-R dissolved in running buffer (1×PBS with filtration, 0.01% DMSO) were flown over the chip to produce response signals. The kinetics and affinities were calculated by the Biacore Insight Evolution software, and the results were determined as the binding affinity (KD).
Background: Surface plasmon resonance follows binding to a sensor surface in real time, without labels.

Test [2] deals with A549 cells. The test is described as follows: Cell viability assay (CCK-8), A549. Format: cell-based. To be noted: Homo sapiens, A549, 72 h, read-out: IC50 cell proliferation. The method, then:
(§1) Cell proliferation was measured using the Cell Counting Kit-8 (CCK-8, B34304, Bimake, USA). A549 (2 × 10^3/100 μL/well), PC-9 (3 × 10^3/100 μL/well) or PC-9/GR cells (3 × 10^3/100 μL/well) were plated into each well of 96-well plates (Costar, USA). […] Then, 10 μL of CCK-8 was added to each well, and cells were incubated for 1-4 h until the color of untreated controls turned to orange. The absorbance (A) was measured by a microplate reader (FLUOstar Omega-ACU, USA) at test and reference wavelengths of 450 nm. The percentage of growth was calculated as Cell viability (%) = [A (Compound +) - A (Blank) ] / [A (Compound -) - A (Blank) ] × 100%. Cell viability meant proliferation of cells. Each experiment was done at least in triplicate, and thrice independently.

The subject of test [3] is PC-9 cells. The test is described as follows: Cell viability assay (CCK-8), PC-9. Format: cell-based. To be noted: Homo sapiens, PC-9, 72 h, read-out: IC50 cell proliferation. The method, then:
as §1

Test [4] relates to A549 cells. The test is described as follows: Colony formation assay, A549. Format: cell-based, human. To be noted: A549, as low as 0.3 μM.
The subject of test [5] is PC-9 cells. The test is described as follows: Colony formation assay, PC-9. Format: cell-based, human. To be noted: PC-9, as low as 0.3 μM.
Test [6] deals with A549 cells. The test is described as follows: Wound healing assay for migration. Format: cell-based, human. Conditions: 48 h. As for the experimental part:
The motility of cells was measured by wound healing assay. Cells were seeded into 6-well plates and cultured to 90-100% confluent after 24 h. Wounds were made in each well of 6-well plates using pipette tips. […] The migration of cells was visualized under a microscope (4 ×, Nikon, Japan) and photographed in different time points (0 and 48 h).

In test [7] the test system is A549 cells. The test is described as follows: Transwell cell invasion assay, A549. To be noted: A549, 1 μM.
Method: Transwell invasion assays were performed as previously reported [37] using Transwell chamber (Costar, USA). […] Data from triplicates experiments were pooled and plotted as shown.

The Kd is the equilibrium constant for the complex coming apart. Read a high Kd as weaker binding.

full-length wild-type STAT3, sequence (P40763 whole entry): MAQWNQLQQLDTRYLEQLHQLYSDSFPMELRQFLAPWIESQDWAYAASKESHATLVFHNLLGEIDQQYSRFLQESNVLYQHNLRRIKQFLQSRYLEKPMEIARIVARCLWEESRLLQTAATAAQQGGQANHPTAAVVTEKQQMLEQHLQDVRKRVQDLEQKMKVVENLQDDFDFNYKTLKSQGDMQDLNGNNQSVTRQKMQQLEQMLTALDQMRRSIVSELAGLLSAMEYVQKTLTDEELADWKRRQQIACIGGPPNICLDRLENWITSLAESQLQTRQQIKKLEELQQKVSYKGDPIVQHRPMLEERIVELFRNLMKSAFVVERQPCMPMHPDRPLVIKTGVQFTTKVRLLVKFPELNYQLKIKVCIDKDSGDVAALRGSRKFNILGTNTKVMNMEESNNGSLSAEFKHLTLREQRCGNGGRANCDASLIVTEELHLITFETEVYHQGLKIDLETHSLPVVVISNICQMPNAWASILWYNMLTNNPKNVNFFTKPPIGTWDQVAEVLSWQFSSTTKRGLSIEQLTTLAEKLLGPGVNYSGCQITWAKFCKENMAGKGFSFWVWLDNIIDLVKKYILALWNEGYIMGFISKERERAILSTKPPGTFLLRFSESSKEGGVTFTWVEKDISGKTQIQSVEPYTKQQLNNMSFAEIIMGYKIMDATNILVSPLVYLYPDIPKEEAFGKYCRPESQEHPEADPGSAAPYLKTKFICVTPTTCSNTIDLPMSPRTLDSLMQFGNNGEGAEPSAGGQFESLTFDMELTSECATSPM
Method for PC-9/GR xenografts: For PDX model, the PDX sample was from The Jackson Laboratory. […] The tumor sample were cut into approximately 1 mm^3, and the tissue was pushed under skin of mice by TROCHAR. When tumor volumes reached approximately 100 mm^3, mice were randomly distributed into groups of 7 mice. […] Tumor size was measured every two days by vernier caliper. The average tumor volume in each group was calculated based on the equation for a prolate spheroid (tumor volume = (short-diameter)^2 × large-diameter × π / 6 ) and expressed in mm^3.

`COc1cc2ncnc(Nc3ccc(F)c(Cl)c3)c2cc1OCCCN1CCOCC1` [Gefitinib, reference compound]: in the test with PC-9/GR cells, the Q1 came out at 0.103%, the Q2 was 4.61%, the Q3 came to 3.05% and the Q4 is on record as 92.2%. For the same compound, in the test on PC-9/GR xenografts, the xenograft tumor growth result is listed as “slight inhibitory effect”.
As to `C[C@@H](Oc1ccc(-c2nc3nc(C4=CCN(C(=O)OC(C)(C)C)CC4)ccc3[nH]2)cc1)c1ccccc1` [W2014-R], in [1], the Kd came out at 3390 nM. Further, the values for the IC50 with A549 cells [2] and in the test on PC-9 cells [3] were 2420 nM and 2660 nM, respectively. The colony formation entry with A549 cells [4] and with PC-9 cells [5] was “significantly suppressed the colony formation” each time. Besides, the cell migration entry in the test with A549 cells [6] is listed as “slightly inhibition”. Besides, the cell invasion entry with A549 cells [7] is reported as “not”.

These data come from publication PMC7738869, “A novel STAT3 inhibitor W2014-S regresses human non-small cell lung cancer xenografts and sensitizes EGFR-TKI acquired resistance” (Theranostics, 2021).
